# From PubChem BioAssay AID2747 (The Scripps Research Institute Molecular Screening Center, 2010)
# Active and inactive are the calls of the source. How the calls were made is not given here.
# Biological target: Luciferin 4-monooxygenase (Photinus pyralis) (UniProt P08659)
# Test: firefly luciferase inhibitors, late-stage follow-up, artefact control for HSP90 inhibitor project, biochemical, luminescence, dose response (AID 2747)
# Details: purified firefly luciferase, counterscreen
# Sequence of Luciferin 4-monooxygenase (Photinus pyralis) (P08659 whole entry, looked up): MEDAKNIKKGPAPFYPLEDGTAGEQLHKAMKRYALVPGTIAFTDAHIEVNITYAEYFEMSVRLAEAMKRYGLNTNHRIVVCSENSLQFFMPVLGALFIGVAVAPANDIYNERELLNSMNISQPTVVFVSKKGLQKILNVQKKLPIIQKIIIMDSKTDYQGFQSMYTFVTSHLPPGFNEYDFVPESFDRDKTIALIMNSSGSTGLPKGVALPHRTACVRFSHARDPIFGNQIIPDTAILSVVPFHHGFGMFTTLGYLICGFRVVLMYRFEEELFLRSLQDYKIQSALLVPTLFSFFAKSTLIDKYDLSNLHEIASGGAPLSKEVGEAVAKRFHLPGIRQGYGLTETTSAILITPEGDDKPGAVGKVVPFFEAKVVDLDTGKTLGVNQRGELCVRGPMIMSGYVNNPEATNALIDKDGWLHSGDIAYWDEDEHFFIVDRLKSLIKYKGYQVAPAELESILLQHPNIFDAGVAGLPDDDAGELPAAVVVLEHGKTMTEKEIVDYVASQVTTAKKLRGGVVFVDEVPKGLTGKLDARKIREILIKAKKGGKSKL
row,Structure (SMILES),IC50
1,COC(=O)c1ccccc1OCCCOc1ccc(C)cc1OC,> 60 µM (inactive)
2,COc1ccccc1NC(=O)c1coc(=O)c(Br)c1,> 60 µM (inactive)
3,CCOC(=O)c1csc(NC(=O)c2cc3ccccc3o2)n1,> 60 µM (inactive)
4,CCc1ccc(OCc2ccc(C(=O)OC)o2)cc1,> 60 µM (inactive)
5,CC(=O)Nc1ccccc1OCC(=O)c1cc(C)n(Cc2cccs2)c1C,> 60 µM (inactive)
6,COc1cc(C=NNc2ccc(Cl)c(C(=O)O)c2)ccc1OC(=O)c1ccc(F)cc1,> 60 µM (inactive)

# The next lines start with the values.
row,IC50,Structure (SMILES)
1,> 60 µM (inactive),CCOC(=O)C1=C(c2ccc(OC)cc2)C(=O)c2ccccc2C1=O
2,> 60 µM (inactive),Cc1c(-c2nc(-c3ccc(C(F)(F)F)cc3)no2)n(C)oc1=O
3,> 60 µM (inactive),Cc1cc(NO)nc(-c2ccc(Br)cc2)n1
4,> 60 µM (inactive),Cc1c(-c2nc(-c3ccc(C(C)(C)C)cc3)no2)n(C)oc1=O
